{"source": "patent US6750235B1", "about": "“Pramipexole as a treatment for cocaine craving” (The General Hospital Corporation, priority 1999, dated 2004)", "test": "Case report: treatment of cocaine craving using pramipexole (patient)", "assay_type": "in vivo, human", "details": "one patient; lamotrigine up to 200 mg, before pramipexole was added"}
{"compound": "Nc1nnc(-c2cccc(Cl)c2Cl)c(N)n1", "note": "[lamotrigine]", "values": [{"measurement": "mood (depression)", "result": "modest improvement"}]}
